According to patent publication US20150182667A1, “Composition with Biofilm Dispersal Agents” (Vanderbilt University, priority 2012, published 2015):
Read-outs that look alike come from different tables or passages of the source.

What was measured:
[1] = test system: planktonic S. aureus clinical strains (UAMS-1, 103-700); experiment: MIC by CLSI broth microdilution, planktonic bacteria; type: cell-based, Staphylococcus aureus; details: Staphylococcus aureus, 18 h
Experimental: Overnight cultures of bacterial strains were diluted to a final concentration of 5×10^5 CFU/ml in MHB-II. The resulting bacterial suspension was aliquoted (100 μL) into polystyrene round-bottom 96-well plates containing 100 μL of a 2× concentration of a previously serially diluted (1:2) antibiotic. Each antimicrobial tested was serially diluted 10 times. Following the addition of bacteria, the microtiter plate was covered and was incubated under stationary conditions at 37° C. in the presence of 1× antibiotics. […] MICs of antibiotics were determined in triplicate according to the Clinical and Laboratory Standards Institute (CLSI) broth microdilution as described by the performance standards for antimicrobial susceptibility testing (M100-S22, January 2012).

[2] = test system: biofilm derived S. aureus clinical strains (UAMS-1, 103-700); experiment: Biofilm susceptibility, Calgary Biofilm device (MBEC plates): MBIC and viable CFU; type: cell-based, Staphylococcus aureus; details: 24 h challenge, * = with 5 mM D-AA
Experimental: Biofilm susceptibility to antimicrobial agents in the presence and absence of D-AA was determined using the Calgary Biofilm device. Briefly, biofilms from overnight cultures were established as above on individual pegs of the minimum biofilm eradication concentration (MBEC) plates (Innovotech, Canada) with agitation for 48 h at 37° C. Following incubation, the lid with pegs was removed from the incubation plate, washed by re-suspending pegs into plate with wells containing 200 μl of 1×PBS, then placed into a 96-well challenge plate containing pre-diluted antibiotics with or without an […] for an additional 24 h at 37° C. Following challenge plates were washed, and the attached viable cells on PEGs within the biofilm were determined by plating serial dilutions onto blood agar plates (Remel). Corresponding minimal biofilm inhibitory concentration (MBIC) was also determined by measuring the optical density in individual wells of the challenge plate at 600 nm. The lowest concentration of antibiotic for which an optical density of <0.100 was recorded as the MBIC. For each antibiotic, the MBIC was determined in the presence or absence of a mixture of D-AA (D-Phenylalanine, D-Methionine, and D-Tryptophan) at an equimolar concentration of 5 mM. Three independent experiments were performed for each of these assays, with a minimum of 3 replicates.

[3] = test system: P. aeruginosa clinical isolate biofilms; experiment: Biofilm dispersal and prevention, crystal violet 96-well assay (Example 1); type: cell-based, Pseudomonas aeruginosa; details: 5 mM; for biofilm dispersal against panel of clinical isolates (biofilm biomass OD570): P. aeruginosa clinical isolates, FIGS. 3A, 3C; for biofilm dispersal in pre-screening of eight D-AAs: pre-formed P. aeruginosa biofilms, FIG. 1
Experimental: (§1) Biofilm formation was performed under static conditions in polystyrene 96-well plates (Corning, Inc., Corning, N.Y.). Briefly, overnight bacterial cultures were diluted to an OD600 of 0.1 in CA-MHB and 10 μL was added to individual wells filled with 190 μl of media and incubated at 37° C. for 48 h without shaking for biofilm growth. Following incubation, culture media was removed and 200 μL media containing individual D-AA at concentrations of 5 mM-1 nM was added. Plates were incubated for an additional 24 h at 37° C. After treatment, plates were gently washed with 1× phosphate buffered saline (PBS; pH 7.4) to remove non-adherent bacteria. Biofilms (i.e. attached cells) were then stained with 0.1% (w/v) crystal violet for 10 min, washed, followed by solubilization of crystal violet with 33% (v/v) acetic acid for 10 min. Biofilm biomass was determined by measuring the absorbance at 570 nm using a microtiter plate reader. For assays measuring the ability of D-AA to block biofilm formation, cells were grown under biofilm conditions as above in the presence of media containing D-AA. Three independent experiments with a minimum of 4 replicates were performed for each experimental assay. Representative images of the plates of CV stained biofilms following treatment with D-AA, prior to solubilization, were taken using a digital camera.

[4] = Release of D-AAs from PUR scaffolds in PBS (HPLC); type: physicochemical
Experimental: Also, kinetic release assays were performed on the PUR scaffolds by incorporating 10 wt % of a 1:1:1 mixture of D-Tr:D-Pro:D-Met incubated in PBS for up to 8 weeks. The medium was be sampled twice weekly and analyzed for D-AAs by HPLC.
PUR scaffolds incorporating 10 wt % of a 1:1:1 mixture of D-Met:D-Pro:D-Trp were incubated in PBS at 37° C. under static conditions for up to 8 weeks. This mixture was evaluated in vitro, in vivo and in the release kinetics tests to account for potential interactions between D-AAs during release. The medium was sampled on days 1, 2, 4, 7, 10, 14, 21, and 28 and analyzed for D-AAs by HPLC using a system equipped with a Waters 1525 binary pump and a 2487 Dual-Absorbance Detector at 200 nm. Samples of released D-AAs were eluted through an Atlantis HILIC Silica column (5 μm particle size, 4.6 mm diameter×250 mm length) using an isocratic mobile phase flowing at 1 mL/min. The mobile phase contained 2.5 mM potassium dihydrogen phosphate with pH=2.85 (A) and Acetonitrile (B) at a ratio of A25:B75. The column oven temperature was maintained at 30° C. Sample concentration was determined in reference to an external standard curve using the Waters Breeze system. Standard curves were prepared in the following concentration ranges: (1) 7.8 μg/mL to 1 mg/mL for D-Met and D-Pro and (2) […] to 100 μg/mL for D-Trp.

[5] = test system: S. aureus clinical isolate biofilms; experiment: Biofilm dispersal and prevention, crystal violet 96-well assay (Example 1); type: cell-based, Staphylococcus aureus; details: 5 mM; for biofilm dispersal against panel of clinical isolates (biofilm biomass OD570): S. aureus clinical isolates, FIGS. 3A, 3C; for biofilm dispersal in pre-screening of eight D-AAs: pre-formed S. aureus biofilms, FIG. 1
Experimental: as §1

[6] = test system: S. aureus clinical isolates biofilms; experiment: Biofilm dispersal and prevention, crystal violet assay (Example 3); type: cell-based; details: for dispersal of established biofilms (biofilm biomass): panel of clinical isolates of methicillin-resistant S. aureus (n=5), 5 mM, 24 h, FIGS. 8A, 8C; for biofilm dispersal in pre-screening of eight individual D-AAs: pre-formed biofilms of four clinical isolates, 0.001-50 mM, FIG. 7
Experimental: Like in Example 1, biofilm formation was assessed under static conditions using polystyrene 96-well plates (Corning, Inc.). Overnight bacterial cultures were diluted to an OD600 of 0.1 in TSB (˜10^7 CFU/mL), and 20 μL were added to individual wells filled with 180 μL of media and incubated at 37° C. for 48 h. To assess the biofilm dispersal activity of D-AAs, the culture medium from biofilms was removed after 48 h and 200 μL fresh medium containing either an individual D-AA or an equimolar mixture of D-AAs (1:1:1: D-Met:D-Pro:D-Trp) were added at the indicated concentrations. After treatment with D-AA(s) for 24 h, plates were gently washed with 1× phosphate buffered saline (PBS) to remove unattached cells, stained with 0.1% (w/v) crystal violet (Sigma Aldrich) for 10 min, rinsed with PBS, and then solubilized with 80% (v/v) ethanol. Biofilm biomass was determined by measuring the absorbance of solubilized stain at 570 nm using a microtiter plate reader. For assays measuring the ability of D-AA to block biofilm formation, cells were grown under biofilm conditions as above in the presence of media containing D-AAs. Representative images of the plates of CV-stained biofilms following treatment with D-AA prior to solubilization were taken using a digital camera. All assays were repeated in triplicate with a minimum of four technical replicates.

MIC ([1]; S. aureus 103-700, agents marked * in combination with equimolar 5 mM D-AA, read-out: Planktonic (MIC) 103-700) | MIC ([1]; S. aureus UAMS-1, agents marked * in combination with equimolar 5 mM D-Phenylalanine, D-Tryptophan, D-Methionine, read-out: Planktonic (MIC) UAMS-1) | cumulative release by day 28 ([4]; PUR scaffold with 10 wt % D-AA mixture, PBS 37° C.) | burst release ([4]; day 1, PUR scaffold with 10 wt % 1:1:1 D-Met:D-Pro:D-Trp, PBS 37° C.) | b parameter of Weibull model ([4]; fit of D-AA release data) | Compound | Biofilm (MBIC) 103-700 ([2]; S. aureus 103-700 48 h biofilm) | Biofilm (MBIC) UAMS-1 ([2]; S. aureus UAMS-1 48 h biofilm) | biofilm dispersal against panel of clinical isolates (biofilm biomass OD570) [3] | biofilm dispersal in pre-screening of eight D-AAs [3] | biofilm dispersal against panel of clinical isolates (biofilm biomass OD570) [5] | biofilm dispersal in pre-screening of eight D-AAs [5] | dispersal of established biofilms (biofilm biomass) [6] | biofilm dispersal in pre-screening of eight individual D-AAs [6]
16 µg/mL | 0.5 µg/mL | – | – | – | Cc1nnc(SCC2=C(C(=O)O)N3C(=O)[C@@H](NC(=O)Cn4cnnn4)[C@H]3SC2)s1 [CFZ, Cefazolin] | >128 µg/mL | >128 µg/mL | – | – | – | – | – | –
– | – | 85% | 45% | 0.35 | O=C(O)[C@H]1CCCN1 [D-Pro, D-proline] | – | – | capable of significantly dispersing biofilm formation | relatively more effective at dispersing biofilms | capable of significantly dispersing biofilm formation | relatively more effective at dispersing biofilms | effective at dispersing established biofilms | effective at dispersing biofilms
– | – | – | – | – | N[C@H](Cc1ccccc1)C(=O)O [D-Phe, D-phenylalanine] | – | – | capable of significantly dispersing biofilm formation | relatively more effective at dispersing biofilms | capable of significantly dispersing biofilm formation | relatively more effective at dispersing biofilms | effective at dispersing established biofilms | effective at dispersing biofilms
